These results are taken from PMC12040169 (PLOS Biology, 2025).

The nature of the data set: in vitro. The conditions noted are these: human, hela cells, % viability.
With `N/C(Cc1ccc(Cl)cc1Cl)=N\OC(=O)c1cccc([N+](=O)[O-])c1` [CBK264317], the viability at 28.5 h, 10 µM was found to be 91%.

As to `CC(C)(C)OC(=O)NCCC(=O)Oc1ccc2c3c(c(=O)oc2c1)CCCC3` [CBK265008], the viability at 28.5 h, 10 µM is 89.3%.

Regarding `Cc1ccc(C)c(NS(=O)(=O)c2cc(C(=O)NCc3ccccn3)ccc2C)c1` [CBK269110], the viability at 28.5 h, 10 µM is 98.3%.

As for `CS(=O)(=O)NC1CCN(S(=O)(=O)c2cc(Cl)cc(Cl)c2)CC1` [CBK306082], the viability at 28.5 h, 10 µM came to 84.3%.

As to `O=C(COc1ccccc1O)NCCN1CCOCC1` [CBK262243C], the viability at 28.5 h, 10 µM was 84%.

With `CNC(=O)CN1C(=O)CC2(C1=O)C(=O)N(C)c1ccc(OC)cc12` (stereo not drawn) [CBK075190], the viability at 28.5 h, 10 µM is 91.5%.

Turning to `Cc1ccc(C(=O)C(NC(=O)c2ccco2)Nc2cccc3ccccc23)cc1` (stereo not drawn) [CBK263856], the viability at 28.5 h, 10 µM came out at 86.3%.

`Cc1cc2c(cc1Cl)C(=O)CC1(CCNCC1)O2` [CBK282715]: the viability at 28.5 h, 10 µM is 83.1%.

As to `Cc1cc(=O)oc2cc(OCc3ccc(S(=O)(=O)N4CCOCC4)cc3)ccc12` [CBK267402], the viability at 28.5 h, 10 µM is 91.3%.

For `COc1ccc(S(=O)(=O)N(C)CC(=O)O)cc1` [CBK287086], the viability at 28.5 h, 10 µM worked out at 85.9%.

As for `CC1CCCN(c2ccc(NC(=O)c3cccs3)cc2[N+](=O)[O-])C1` (stereo not drawn) [CBK266402], the viability at 28.5 h, 10 µM was 102%.

For `CNC1(c2nnnn2CCOC(=O)Nc2ccc(Cl)cc2)CCCC1` [CBK266253], the viability at 28.5 h, 10 µM amounted to 102%.

Regarding `NCCc1c[nH]c2ccc(OCC(=O)O)cc12` [CBK265853C], the viability at 28.5 h, 10 µM is 86.2%.

As for `Cc1ccc(S(=O)(=O)NCC(C)O)cc1-c1nnc2c3ccccc3c(C)nn12` (stereo not drawn) [CBK266614], the viability at 28.5 h, 10 µM stood at 106%.

In the case of `COc1ccc(CN2CCN(Cc3cc(Br)ccc3O)CC2)cc1OC` [CBK263632], the viability at 28.5 h, 10 µM is 95.5%.

Turning to `COc1ccc(-c2ccc3c(c2)C(=O)N2CCN(C(=O)CC(C)(C)C)C[C@@H]2C(=O)N3)cc1` [CBK289584], the viability at 28.5 h, 10 µM was determined as 94.6%.

As for `Nc1ncc(-c2ccncc2)nc1-c1cccc2c1oc1ccccc12` [CBK063889], the viability at 28.5 h, 10 µM came to 102%.

For `C/C(=N\O)c1ccc(S(N)(=O)=O)cc1` [CBK007871], the viability at 28.5 h, 10 µM turned out to be 100%.

In the case of `CC1CC(N(C(=O)c2cccc(Br)c2)c2ccccc2)c2ccccc2N1` (stereo not drawn) [CBK262966], the viability at 28.5 h, 10 µM amounted to 96.7%.

`NC(=O)CC1C(=O)N(c2ccc(F)cc2)C(=O)N1NC(=O)CCc1ccccc1` (stereo not drawn) [CBK269033]: the viability at 28.5 h, 10 µM is 104%.

Consider `COc1c(Cl)cc(Cl)cc1CNCCCN1CCOCC1` [CBK278165C], for which the viability at 28.5 h, 10 µM was determined as 88.8%.

As for `O=C(Nc1cccc(F)c1)N(CCO)Cc1cccnc1` [CBK304860], the viability at 28.5 h, 10 µM amounted to 104%.

Consider `COc1ccc(C(=O)N2CCC(C)CC2)cc1[N+](=O)[O-]` [CBK074341], for which the viability at 28.5 h, 10 µM stood at 93.3%.

Consider `O=C(c1cccs1)N1CCC[C@@H]1Cn1c(=O)oc2ccccc21` [CBK284528], for which the viability at 28.5 h, 10 µM was 102%.

Take `Cc1ccc(Oc2cc(-n3nc(C)c(C(N)=O)c3N)ncn2)cc1` [CBK099753]: the viability at 28.5 h, 10 µM worked out at 95.7%.

On to `CCOc1ccc(S(=O)(=O)N2CCN(CCCC#N)CC2)c2cccnc12` [CBK063046], for which the viability at 28.5 h, 10 µM stood at 91.6%.

Consider `CC(=O)Nc1ccc(OCC(O)Cn2cnc3ncccc3c2=O)cc1` (stereo not drawn) [CBK304541], for which the viability at 28.5 h, 10 µM came out at 86.4%.

As for `CC(=O)Nc1ccc(CNC(=O)c2cc(C)n(CC(F)(F)F)c2C)cc1` [CBK304523], the viability at 28.5 h, 10 µM stood at 79.2%.

Consider `CCCCN(C=O)c1c(CC)nc2c(OCCOc3ccc(F)cc3)cccn12` [CBK147631], for which the viability at 28.5 h, 10 µM amounted to 92.7%.

As to `CN1CCN(CC(=O)N/N=C/C2CC=CCC2)CC1` (stereo not drawn) [CBK019340], the viability at 28.5 h, 10 µM stood at 89.6%.

For `Cc1cnc(NC(=O)C2CC(=O)N(Cc3cccs3)C2)s1` (stereo not drawn) [CBK175531], the viability at 28.5 h, 10 µM came out at 90.9%.

With `Cc1ccc(Oc2ccc(CNC(=O)c3sc4nc[nH]c(=O)c4c3C)cc2)cc1` [CBK285857], the viability at 28.5 h, 10 µM worked out at 91.3%.

In the case of `COc1ccccc1N1CCN(CC(CC(=O)Nc2ccccc2)C(=O)O)CC1` (stereo not drawn) [CBK286766], the viability at 28.5 h, 10 µM came to 88.6%.

For `CN(C)c1ccc(-c2nnc([C@H]3CCN(C(=O)CCC(=O)O)C3)o2)cc1` [CBK289408], the viability at 28.5 h, 10 µM turned out to be 119%.

Regarding `Cc1ccc(S(=O)(=O)NCC(Oc2ccc([N+](=O)[O-])cc2)c2ccccc2)cc1` (stereo not drawn) [CBK262208], the viability at 28.5 h, 10 µM was 101%.

On to `O=C(NC(=S)Nc1ccc2oc(-c3ccncc3)nc2c1)c1cc(Br)ccc1Cl` [CBK264343], for which the viability at 28.5 h, 10 µM is 87.8%.

With `O=c1c2nnc3ncnn3c2ccn1-c1ccccc1` [CBK288075], the viability at 28.5 h, 10 µM was determined as 99.5%.

With `COc1ccc(CC(CC(=O)O)C(=O)Nc2ccc(OC)cc2)cc1` (stereo not drawn) [CBK286975], the viability at 28.5 h, 10 µM was found to be 87.9%.

As for `COc1cc(/C=C2/C(=O)N(c3nnn[nH]3)N=C2C)ccc1OC(=O)c1cccs1` [CBK266641], the viability at 28.5 h, 10 µM came out at 112%.

In the case of `Cc1occc1-c1nnc(NCc2cnn(C)c2C)o1` [CBK304819], the viability at 28.5 h, 10 µM was 92.3%.

As for `CC(C)c1ccc(-c2cncc(NCc3cccc(Cl)c3)n2)cc1` [CBK065347], the viability at 28.5 h, 10 µM was 106%.

On to `NNc1nc(-c2ccccc2)cc(-c2ccc(Br)cc2)n1` [CBK261795], for which the viability at 28.5 h, 10 µM is 107%.

Regarding `O=c1c(-c2nncn2-c2ccccc2)coc2c(O)c(O)ccc12` [CBK266889], the viability at 28.5 h, 10 µM came out at 102%.

Take `CCC1(O)C(C)C(c2ccc(Cl)cc2)NC(c2ccc(Cl)cc2)C1C` (stereo not drawn) [CBK025376C]: the viability at 28.5 h, 10 µM is 124%.

Turning to `CC(=O)Nc1ccc(-c2ccc(COC3CCN(C(=O)Cc4ccc(Cl)cc4)CC3)cc2)cc1` [CBK149218], the viability at 28.5 h, 10 µM came to 94.6%.

For `Cc1cc(C(=O)N2CCN3C(=O)CCC32C)c(C2CC2)o1` (stereo not drawn) [CBK282092], the viability at 28.5 h, 10 µM was found to be 97.6%.

With `O=C(Cn1cc(C(=O)NC2CCCCC2)ccc1=O)NCC1(c2ccccc2Cl)CC1` [CBK286101], the viability at 28.5 h, 10 µM was determined as 86.4%.

As for `O=C(O)c1ccc(NC(CC(=O)c2ccccc2)c2ccc(Br)cc2)cc1` (stereo not drawn) [CBK266195C], the viability at 28.5 h, 10 µM was 109%.

For the compound `Cc1cc(O)n2nc(C)c(-c3ccc(F)cc3)c2n1` [CBK283642], the viability at 28.5 h, 10 µM worked out at 89.3%.

For the compound `O=S(=O)(c1cccc(C(F)(F)F)c1)n1ccc2c(CN3CCC[C@@H]3CO)cccc21` [CBK116167T], the viability at 28.5 h, 10 µM is 96.8%.

For `CCn1c(SCC(=O)N2c3ccccc3Sc3ccccc32)nnc1C(C)Oc1ccccc1` (stereo not drawn) [CBK266290], the viability at 28.5 h, 10 µM stood at 105%.

For `O=c1c(Cc2ccccc2)c(O)c2cccc3c2n1CCC3` [CBK291166], the viability at 28.5 h, 10 µM amounted to 93.3%.

As for `O=C(O)CC1(O)C(=O)N(Cc2ccccc2)c2ccccc21` (stereo not drawn) [CBK286673], the viability at 28.5 h, 10 µM was 104%.

On to `FC(F)(F)c1nc2ccccc2nc1SCCOc1ccccc1` [CBK103726], for which the viability at 28.5 h, 10 µM was 102%.

On to `O=C(C1CC1)N1CCC2(CC1)Nc1ccccc1-n1cccc12` [CBK284011], for which the viability at 28.5 h, 10 µM turned out to be 91.5%.

Regarding `NS(=O)(=O)c1ccc(NC(=O)CN2CCN(c3ccc([N+](=O)[O-])cc3)CC2)cc1` [CBK266232], the viability at 28.5 h, 10 µM turned out to be 96.8%.

As to `CCOC(=O)c1c(C#N)c(SCc2ccc(Cl)cc2)nc2c1CN(CC)CC2` [CBK021337], the viability at 28.5 h, 10 µM stood at 90.9%.
